Patent US20260285924A1, “PEPTIDE THERAPEUTICS” (priority 2023, published 2026)

How the values were obtained:
A375 cells = assay: A-to-I PepTile screen: fitness effect upon IFNα (PepTile abundance untreated vs treated); type: cell-based, human
Description: (§1) FIGS. 12A-12D. A-to-I PepTile screen. (A) Composition of A-to-I PepTile linrary screen, and schematic description of the lentiviral expression vector. (B) Experimental workflow. A375 cells were transduced at low MOI, and then treated or not with IFNα for 48 hrs. RNA was extracted and Peptide_ADARreporter RNA species were amplified and sequenced by NGS. (C) Dot plot of A-to-I PepTile library effect on A-to-I editing with or without IFNα treatment. Red line is the mean A-to-I editing of all the 8088 peptides (>100 read counts) no treatment: 25.75% IFNα: 37.6%. (D) Dot plot of A-to-I PepTile library fitness effect upon IFNα for 48 hrs.
Provided herein is a screening methodology to measure the effect of small peptide on A-to-I RNA editing in situ and screen thousands of peptides in a single experiment. First, a library of peptides with the potential of impairing A-to-I editing was designed and built. ADAR enzymes edit RNA only on double-stranded RNA structures and via ADAR's double stranded RNA-Binding Domain (dsRBD). […] The A-to-I PepTile library is composed of 19 Human proteins having dsRBD and 34 known protein-protein interactors of ADAR1/2. All these proteins were tiled into 40-mer peptides every 4 amino acids (FIG. 12A). To measure A-to-I editing, a biosensor consisting of a 71 bp dsRNA hairpin structure that gets A-to-I edited at a rate of 25% in A375 melanoma cells, and ~37% upon IFNα treatment was used. This A-to-I editing reporter is fused with DNA sequence encoding for a peptide from the A-to-I PepTile library. The A-to-I PepTile plasmid pool (10304 elements) was used to produced lentiviruses and transduced A375 cells at a low multiplicity of infection (MOI) (FIG. 12B). A part of the infected cells was treated with IFNα at 6000 U/ml for 48 hours, and then bulk RNA of the basal and treated condition was harvested. RNA was then retrotranscribed into cDNA and sequenced by Next-Generation Sequencing (NGS). With the sequencing data, the A-to-I editing percentage of the RNA reporter for each PepTile is calculated since both elements are encoded on the same transcript. Moreover, with this screen one can also measure the abundance of the PepTiles between the untreated and treated conditions and determine Fitness score associated to every PepTile. To ensure a robust and more accurate A-to-I editing % estimation a cut-off of 100 read counts was set for each PepTile. […] SEQ ID NOs: 2125-2147 are A-to-I peptide inhibitors and SEQ ID NOs: 2148-2210 are A-to-I activators. In addition, 117 PepTiles were identified that either synergize (SEQ ID NOs: 2211-2243) or protect (SEQ ID NOs: 2244-2327) to IFNα-induced cell death (FIG. 12D and Table 5). These PepTiles are potential new therapeutic agents that can modulate the Interferon pathway. They may be beneficial in treating inflammatory conditions and may also enhance the effectiveness of cancer immunotherapy through synergistic effects.

[1] = test system: A-to-I RNA editing reporter (ADAR) in A375; assay: A-to-I PepTile (REPTILE) screen: A-to-I editing of dsRNA hairpin reporter by NGS; type: cell-based, human; conditions: for % A-to-I editing (IFNα): IFNα 6000 U/ml for 48 hours; for % A-to-I editing (Basal): no treatment
Description: as §1
FIGS. 17A-17F show A-to-I RNA Editing PiTile (REPTILE) screen in A375. (A) A-to-I RNA Editing PiTile (REPTILE) library design consist of fragmentation of all known ADAR1, ADAR2 interactors and all human double stranded RNA-binding protein into 40 amino acid long peptide. This library was then cloned into a lentivirus vector that also encode a DNA-encoded RNA loop reporter (A-to-I Rep) that is edited by ADAR proteins in cells at the RNA level. When the construct is expressed, the RNA loop gets edited on a single Adenosine, while the 40-mer peptide get expressed at the protein level. Then we can measure the impact of the peptide expression on the editing rate of the RNA loop reporter by sequencing (NGS and Sanger). (B) Experimental workflow of REPTILE screen in A375 cell line. Cells were transduced with the REPTILE library, and then treated for 48 hours with IFNα. Following the treatment, RNA was harvested, converted into cDNA and amplicon library containing peptide Identity (barcode) linked to the RNA loop reporter were prepared for NGS. (C) Result of the A375 REPTILE screen in the no treatment condition. Each dot represents a unique peptide that is associated with an A-to-I editing rate that was measured on the RNA loop. (D) Result of the A375 REPTILE screen in the IFNα condition. Each dot represents a unique peptide that is associated with an A-to-I editing rate that was measured on the RNA loop. Red line represent the A-to-I editing mean, Dash blue line represent 2 times the standard deviation of the % A-to-I editing across all the datasets. This cutoff was used to defined peptides hits that modulate RNA A-to-I editing. (E) Peptide A-to-I Inhibitor Hits intersection between no treatment (% A-to-I editing<15%) and IFNα (% A-to-I editing<27%) conditions. (F) Peptide A-to-I Enhancers Hits intersection between no treatment (% A-to-I editing>36%) and IFNα (% A-to-I editing>47%) conditions.
Provided herein is a screening methodology to measure the effect of small peptide on A-to-I RNA editing in situ and screen thousands of peptides in a single experiment. First, a library of peptides with the potential of impairing A-to-I editing was designed and built. ADAR enzymes edit RNA only on double-stranded RNA structures and via ADAR's double stranded RNA-Binding Domain (dsRBD). […] The A-to-I PepTile library is composed of 19 Human proteins having dsRBD and 34 known protein-protein interactors of ADAR1/2. All these proteins were tiled into 40-mer peptides every 4 amino acids (FIG. 12A). To measure A-to-I editing, a biosensor consisting of a 71 bp dsRNA hairpin structure that gets A-to-I edited at a rate of 25% in A375 melanoma cells, and ~37% upon IFNα treatment was used. This A-to-I editing reporter is fused with DNA sequence encoding for a peptide from the A-to-I PepTile library. The A-to-I PepTile plasmid pool (10304 elements) was used to produced lentiviruses and transduced A375 cells at a low multiplicity of infection (MOI) (FIG. 12B). A part of the infected cells was treated with IFNα at 6000 U/ml for 48 hours, and then bulk RNA of the basal and treated condition was harvested. RNA was then retrotranscribed into cDNA and sequenced by Next-Generation Sequencing (NGS). […]

[2] = IFNα 6000 U/ml for 48 hours vs untreated

“MKEHMDAINHDTKELEKMTNRQGMLLKKKEECMKKIRELGS [SMC3_228]” was tested, and the “Fitness Score IFNα” value (A375 cells; A375, PepTile abundance upon IFNα treatment, negative = synthetic lethal, positive = protector) was -3.54, the “Fitness Score IFNα” value (A375 cells; [2]) was -3.54 and the “% A-to-I editing (IFNα)” value [1] was 23.22%. The “% A-to-I editing (Basal)” value [1] was 13.27%.

For “MKKNIAAERKEAKQEKEEADRYQRLKDEVVRAQVQLQLFKL [SMC1A_48]”, the “Fitness Score IFNα” value (A375 cells; [2]) was 1.61, the “% A-to-I editing (IFNα)” value [1] was 26.12% and the “% A-to-I editing (Basal)” value [1] was 11.19%.

With “MKTPIQVLHEYGMKTKNIPVYECERSDVQIHVPTFTFRVTV [PRKRA_9]” the “Fitness Score IFNα” value (A375 cells; [2]) was -0.21, the “% A-to-I editing (IFNα)” value [1] was 48.95% and the “% A-to-I editing (Basal)” value [1] was 43.02%.

“MKVPAVPVQWGNCGDTGTRSAGPLRRNYNFIAAVVEKVAPS [HTRA4_36]” was tested, and the “Fitness Score IFNα” value (A375 cells; [2]) was 0.18, the “% A-to-I editing (IFNα)” value [1] was 25.56% and the “% A-to-I editing (Basal)” value [1] was 12.55%.

For “MLANFGPRINDIKRIIQSREREMKDLKEKMNQVEDEVFEEF [SMC1A_186]”, the “Fitness Score IFNα” value (A375 cells; [2]) was 0.69, the “% A-to-I editing (IFNα)” value [1] was 56.93% and the “% A-to-I editing (Basal)” value [1] was 55.39%.

In the case of “MLEQCNTELKKYSHVNKKALDQFVNFSEQKEKLIKRQEELD [SMC3_243]”, the “Fitness Score IFNα” value (A375 cells; [2]) is reported as -0.61, the “% A-to-I editing (IFNα)” value [1] is reported as 47.01% and the “% A-to-I editing (Basal)” value [1] is reported as 42.74%.

In the case of “MLPERLEVNGRESEEENLNKSEISQVFEIALKRNLPVNFEV [STAU1_42]”, the “Fitness Score IFNα” value (A375 cells; [2]) is reported as 0.46, the “% A-to-I editing (IFNα)” value [1] is reported as 18.40% and the “% A-to-I editing (Basal)” value [1] is reported as 11.00%.

For “MLRYFDEKELELMLCGMQEIDMSDWQKSTIYRHYTKNSKQI [WWP2_185]”, the “Fitness Score IFNα” value (A375 cells; [2]) was -0.08, the “% A-to-I editing (IFNα)” value [1] was 25.97% and the “% A-to-I editing (Basal)” value [1] was 13.42%.

For “MMGGPLPPHLALKAENNSEVGASGYGVPGPTWDRGANLKDY [DHX9_28]”, the “Fitness Score IFNα” value (A375 cells; [2]) was 1.46, the “% A-to-I editing (IFNα)” value [1] was 54.35% and the “% A-to-I editing (Basal)” value [1] was 49.65%.

For “MNKSEISLVFEIALKRNMPVSFEVIKESGPPHMKSFVTRVS [STAU2_44]”, the “Fitness Score IFNα” value (A375 cells; [2]) was 0.07, the “% A-to-I editing (IFNα)” value [1] was 23.54% and the “% A-to-I editing (Basal)” value [1] was 6.78%.

For “MNMMLFEVVKMGKSAMQSVVDDWIESYKHDRDIALLDLINF [STAG2_21]”, the “Fitness Score IFNα” value (A375 cells; [2]) was 0.65, the “% A-to-I editing (IFNα)” value [1] was 58.92% and the “% A-to-I editing (Basal)” value [1] was 43.58%.

With “MPLRGWPLELLCEKSIGTANRPMGAGEALRRVLECLASGIV [ILF3_62]” the “Fitness Score IFNα” value (A375 cells; [2]) was -0.73, the “% A-to-I editing (IFNα)” value [1] was 55.34% and the “% A-to-I editing (Basal)” value [1] was 39.78%.

“MPVSALHQFAQMQRVQLDLKETVTTGNVMGPYFAFCAVVDG [ADAD1_25]” was tested, and the “Fitness Score IFNα” value (A375 cells; [2]) was 0.99, the “% A-to-I editing (IFNα)” value [1] was 25.66% and the “% A-to-I editing (Basal)” value [1] was 14.03%.

For “MPYERQQFESVEWYNNRNQDNYVSWSDSEDDDEDEEIEEKE [DICER1_98]”, the “Fitness Score IFNα” value (A375 cells; [2]) was -1.79, the “% A-to-I editing (IFNα)” value [1] was 52.37% and the “% A-to-I editing (Basal)” value [1] was 37.74%.

For “MQAHLAMGGGPGPGTDFTSDQADFPDTLFQEFEPPAPRPGL [ADARB2_50]”, the “Fitness Score IFNα” value (A375 cells; [2]) was 0.65, the “% A-to-I editing (IFNα)” value [1] was 51.37% and the “% A-to-I editing (Basal)” value [1] was 40.11%.

With “MQPQTTINKEQFSKRKNDTLDPELFVECTECGRKMHQICVL [EP300_306]” the “Fitness Score IFNα” value (A375 cells; [2]) was -0.25, the “% A-to-I editing (IFNα)” value [1] was 20.81% and the “% A-to-I editing (Basal)” value [1] was 12.58%.

For “MQQGTPGMALGSMGSVVKSEASSSPPVVTSSSHSRAPCQAG [SOX2_58]”, the “Fitness Score IFNα” value (A375 cells; [2]) was -0.36, the “% A-to-I editing (IFNα)” value [1] was 53.74% and the “% A-to-I editing (Basal)” value [1] was 41.35%.

For “MQVEQMEIPPVELPPEEPPNICQLIPELELLPEKEKEKEKE [RAD21_124]”, the “Fitness Score IFNα” value (A375 cells; [2]) was 1.20, the “% A-to-I editing (IFNα)” value [1] was 48.70% and the “% A-to-I editing (Basal)” value [1] was 39.15%.

With “MQVTISVTSPLMREDPSTDPGVEEPQADAGDVLSPKKCLES [ZFR2_183]” the “Fitness Score IFNα” value (A375 cells; [2]) was -0.70, the “% A-to-I editing (IFNα)” value [1] was 54.85% and the “% A-to-I editing (Basal)” value [1] was 40.13%.

“MRFLYSELMKYNSQTAKDSIFEPAKGGEKLQIKKTVSFHLY [ADAR_231]” was tested, and the “Fitness Score IFNα” value (A375 cells; [2]) was 0.14, the “% A-to-I editing (IFNα)” value [1] was 65.21% and the “% A-to-I editing (Basal)” value [1] was 56.37%.

“MRNAEFLTCNIPTSNASNNMVTTEKVENGQEPVIKLENRQE [ADAR_97]” was tested, and the “Fitness Score IFNα” value (A375 cells; [2]) was -1.27, the “% A-to-I editing (IFNα)” value [1] was 51.11% and the “% A-to-I editing (Basal)” value [1] was 40.12%.

“MRPFQALPREQSPPPPLQTSSGAEVMDVGSGGDGQSELPAE [DGCR8_7]” was tested, and the “Fitness Score IFNα” value (A375 cells; [2]) was 0.13, the “% A-to-I editing (IFNα)” value [1] was 54.04% and the “% A-to-I editing (Basal)” value [1] was 40.23%.

In the case of “MRRDHQLREAPDTAEKAKSHLEVPLEENVNRRVLEEGSVEA [CCDC124_27]”, the “Fitness Score IFNα” value (A375 cells; [2]) is reported as 1.71, the “% A-to-I editing (IFNα)” value [1] is reported as 24.35% and the “% A-to-I editing (Basal)” value [1] is reported as 12.18%.

For “MSELNQKRPQYIKAKENTSHKIKKLEAAKKSLQNAQKHYKK [SMC1A_73]”, the “Fitness Score IFNα” value (A375 cells; [2]) was -0.76, the “% A-to-I editing (IFNα)” value [1] was 23.54% and the “% A-to-I editing (Basal)” value [1] was 11.31%.

For “MSESGNSARSSGISSQNSSTSDGDRSVSSQSSSSVSSQVTT [CDKN2AIP_47]”, the “Fitness Score IFNα” value (A375 cells; [2]) was -1.31, the “% A-to-I editing (IFNα)” value [1] was 26.81% and the “% A-to-I editing (Basal)” value [1] was 14.82%.
